Assay results taken from patent EP2548876A1, “New CRTh2 antagonists” (Almirall, S.A., priority 2011, dated 2013).

Target: T1, CRTh2 receptor (Homo sapiens, UniProt Q9Y5Y4)
T1 construct: expressed in transfected cells; host or cells: CHO.K1 cells (membranes)
T1 sequence (Q9Y5Y4 1-395): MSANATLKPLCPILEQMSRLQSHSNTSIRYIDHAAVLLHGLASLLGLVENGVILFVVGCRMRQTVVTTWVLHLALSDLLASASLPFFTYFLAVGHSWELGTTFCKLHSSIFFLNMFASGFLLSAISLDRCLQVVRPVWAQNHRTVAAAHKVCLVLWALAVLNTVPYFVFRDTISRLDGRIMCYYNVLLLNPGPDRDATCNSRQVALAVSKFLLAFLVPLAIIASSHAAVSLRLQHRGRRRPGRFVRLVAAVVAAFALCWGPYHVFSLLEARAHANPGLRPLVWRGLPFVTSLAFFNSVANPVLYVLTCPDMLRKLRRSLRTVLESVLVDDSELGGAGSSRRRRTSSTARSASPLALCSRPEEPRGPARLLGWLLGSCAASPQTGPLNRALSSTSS
Assay: CRTh2 GTPγS antagonism binding assay
Format: biochemical
Conditions: membranes from CHO.K1 cells stably overexpressing the CRTh2 receptor; PGD2 at 50 nM (EC80); 0.1 nM [35S]-GTPγS; 1 h pre-incubation with compound, then 2 h at room temperature; read-out: GTPγ Binding
Procedure: CRTh2 GTPγS antagonism binding assay
The assay is performed using membranes obtained from CHO.K1 cells stably overexpressing the CRTh2 receptor and [^35S]-GTPγS as radioligand. Assay is performed pre-incubating 4-8 µg of membranes per well with the compound to be tested for 1 h, followed by incubation with PGD2 at 50 nM (EC80), 0.1 nM [^35S]-GTPγS in incubation buffer (20 mM HEPES, 10 mM MgCl2, 100 mM NaCl, 10 µM GDP, 10 µg/ml Saponine and 0.2% BSA) for 2 h at room temperature. The reaction is terminated by filtering in GF/C plates pre-treated with 20 mM HEPES, 10 mM MgCl2, 100 mM NaCl and washing 6 times with wash buffer (20 mM NaH2PO4, 20 mM Na2HPO4). After washing, plates are dried and scintillation buffer Optiphase added. The radioactivity retained in the filter is counted using a Microbeta liquid scintillation counter. Compound IC50 are determined using Excel XL-fit for calculations.

SMILES	IC50
CCN(Cc1cc(C(F)(F)F)ccc1-c1cn(CC(=O)O)c2ccc(C)nc12)C(=O)C1CC1 [Example 3, {3-[2-{[(Cyclopropylcarbonyl)(ethyl)amino]methyl}-4-(trifluoromethyl)phenyl]-5-methyl-1H-pyrrolo[3,2-b]pyridin-1-yl}acetic acid]	0.016 µM
CCN(Cc1cc(C(F)(F)F)ccc1-c1cc(CC(=O)O)n2ccc(C(F)(F)F)nc12)C(=O)C1CC1 [Example 22, [8-[2-{[(Cyclopropylcarbonyl)(ethyl)amino]methyl}-4-(trifluoromethyl)phenyl]-2-(trifluoromethyl)pyrrolo[1,2-a]pyrimidin-6-yl]acetic acid]	0.006 µM
CCN(Cc1cc(F)ccc1-c1cn(CC(=O)O)c2ccc(C(F)(F)F)nc12)C(=O)C1CC1 [Example 7, [3-(2-{[(Cyclopropylcarbonyl)(ethyl)amino]methyl}-4-fluorophenyl)-5-(trifluoromethyl)-1H-pyrrolo[3,2-b]pyridin-1-yl]acetic acid]	0.011 µM
CCN(Cc1cc(F)ccc1-c1cn(CC(=O)O)c2cccnc12)C(=O)C1CC1 [Example 2, [3-(2-{[(Cyclopropylcarbonyl)(ethyl)amino]methyl}-4-fluorophenyl)-1H-pyrrolo[3,2-b]pyridin-1-yl]acetic acid]	0.01 µM
CCN(Cc1cc(C(F)(F)F)ccc1-c1cn(CC(=O)O)c2cccnc12)C(=O)C1CC1 [Example 1, {3-[2-{[(Cyclopropylcarbonyl)(ethyl)amino]methyl}-4-(trifluoromethyl)phenyl]-1H-pyrrolo[3,2-b]pyridin-1-yl}acetic acid]	0.015 µM
CCN(Cc1cc(F)ccc1-n1cc(CC(=O)O)c2cccnc21)C(=O)C1CC1 [Example 13, [1-(2-{[(Cyclopropylcarbonyl)(ethyl)amino]methyl}-4-fluorophenyl)-1H-pyrrolo[2,3-b]pyridin-3-yl]acetic acid]	0.017 µM
CCN(Cc1cc(F)ccc1-c1cc(CC(=O)O)n2cccnc12)C(=O)C1CC1 [Example 21, [8-(2-{[(Cyclopropylcarbonyl)(ethyl)amino]methyl}-4-fluorophenyl)pyrrolo[1,2-a]pyrimidin-6-yl]acetic acid]	0.02 µM
CCN(Cc1cc(C(F)(F)F)ccc1-c1cc(CC(=O)O)c2ccncn12)C(=O)C1CC1 [Example 26, {7-[2-{[(Cyclopropylcarbonyl)(ethyl)amino]methyl}-4-(trifluoromethyl)phenyl]pyrrolo[1,2-c]pyrimidin-5-yl}acetic acid]	0.032 µM
CCN(Cc1cc(F)ccc1-n1cc(CC(=O)O)c2ccc(C)nc21)C(=O)C1CC1 [Example 16, [1-(2-{[(Cyclopropylcarbonyl)(ethyl)amino]methyl}-4-fluorophenyl)-6-methyl-1H-pyrrolo[2,3-b]pyridin-3-yl]acetic acid]	0.005 µM
Cc1ccc2c(n1)c(-c1ccc(C(F)(F)F)cc1CN(Cc1ccccc1)C(=O)C1CC1)cn2CC(=O)O [Example 9, {3-[2-{[Benzyl(cyclopropylcarbonyl)amino]methyl}-4-(trifluoromethyl)phenyl]-5-methyl-1H-pyrrolo[3,2-b]pyridin-1-yl}acetic acid]	0.014 µM
CCN(Cc1cc(C(F)(F)F)ccc1-n1cc(CC(=O)O)c2cccnc21)C(=O)C1CC1 [Example 12, {1-[2-{[(Cyclopropylcarbonyl)(ethyl)amino]methyl}-4-(trifluoromethyl)phenyl]-1H-pyrrolo[2,3-b]pyridin-3-yl}acetic acid]	0.009 µM
CCN(Cc1cc(C(F)(F)F)ccc1-c1cn(C(C)C(=O)O)c2ccc(C)nc12)C(=O)C1CC1 (stereo not drawn) [Example 6, 2-{3-[2-{[(Cyclopropylcarbonyl)(ethyl)amino]methyl}-4-(trifluoromethyl)phenyl]-5-methyl-1H-pyrrolo[3,2-b]pyridin-1-yl}propanoic acid]	0.018 µM
CCN(Cc1cc(C(F)(F)F)ccc1-c1cc(CC(=O)O)n2cccnc12)C(=O)C1CC1 [Example 20, {8-[2-{[(Cyclopropylcarbonyl)(ethyl)amino]methyl}-4-(trifluoromethyl)phenyl]pyrrolo[1,2-a]pyrimidin-6-yl}acetic acid]	0.013 µM
CCN(Cc1cc(C(F)(F)F)ccc1-c1cc(CC(=O)O)n2ccc(C)nc12)C(=O)C1CC1 [Example 23, {8-[2-{[(Cyclopropylcarbonyl)(ethyl)amino]methyl}-4-(trifluoromethyl)phenyl]-2-methylpyrrolo[1,2-a]pyrimidin-6-yl}acetic acid]	0.007 µM
CCN(Cc1ccccc1-n1cc(CC(=O)O)c2ccc(C)nc21)C(=O)C1CC1 [Example 17, [1-(2-{[(Cyclopropylcarbonyl)(ethyl)amino]methyl}phenyl)-6-methyl-1H-pyrrolo[2,3-b]pyridin-3-yl]acetic acid]	0.005 µM
